These results are taken from US9783838B2, “PmST3 enzyme for chemoenzymatic synthesis of alpha-2-3-sialosides” (The Regents of the University of California, priority 2012, dated 2017).

Data set [1] deals with T1, PmST3Δ35-His6 (Pasteurella multocida, UniProt Q9CLP3). Nature of the data set: Acceptor substrate specificity of PmST3Δ35-His6. It is filed as biochemical. Conditions: acceptor 2 mM, CMP-Neu5Ac 2 mM, 37° C., pH 7.5. How it is done:
All reactions were carried out in duplicate at 37° C. in Tris-HCl (200 mM, pH 7.5) containing an acceptor substrate (2 mM), CMP-Neu5Ac (2 mM), and PmST3Δ35-His6 (0.25 μg μl^−1). At 10 min or 4 hr, aliquots of reaction mixture were withdrawn and added to pre-chilled acetonitrile:water (20:80) (for reactions with acceptors containing 2-aminobenzoic acid (2AA) or 4-methylumbelliferone (MU) aglycone) or pre-chilled 95% ethanol (for reactions with acceptor containing Pro-triazole-C14 or pNP aglycone) and samples were kept on ice until being analyzed. Samples with acceptors containing 2AA (315 nm excitation and 400 nm emission) or MU (326 nm excitation and 372 nm emission) were analyzed by HPLC equipped with a fluorescent detector. Samples with acceptor containing Pro-triazole-C14 (214 nm) or pNP (300 nm) aglycone were centrifuged at 13,000 rpm for 5 min and analyzed by capillary electrophoresis (CE) equipped with a photodiode array (PDA) detector as described previously using sodium borate buffer (50 mM, pH 10.2) containing β-cyclcodextrin (20 mM) as a running buffer (Glycobiology, 21:1206-1216).

A further data set deals with CstI. Conditions: truncated monofunctional α2-3-sialyltransferase CstI; cited from earlier work.
For data set [2], the system named is PmST2. The note with it: cited from earlier work.
For data set [3], the target named is T2, PmST1 (Pasteurella multocida, UniProt Q15KI8). Conditions: cited from earlier work.
The subject of data set [4] is PmST2. Conditions: up to 20 mM; cited from earlier work.
Data set [5] concerns the target T1, PmST3Δ35-His6. The format is biochemical. How it is done:
For metal effects, various concentrations (1, 5, 10, or 20 mM) of MgCl2 or MnCl2 were used. Ethylenediaminetetraacetic acid (EDTA) as a chelating agent was used at two concentrations (1 or 10 mM). A reducing reagent dithiothreitol (DTT) was used at two concentrations (1 or 10 mM). Reaction without metal ions, EDTA, or DTT was used as a control. The reaction was quenched by adding 490 μl of pre-chilled acetonitrile:water (20:80). Samples were kept on ice until being analyzed by HPLC equipped with a fluorescent detector (315 nm excitation and 400 nm emission).

For data set [6], the target named is T2, PmST1. Conditions: cited from earlier work. The source holds these as a separate data set.
For data set [7], the system named is CC(=O)N[C@H]1[C@H]([C@H](O)[C@H](O)CO)O[C@](OP(=O)(O)OC[C@H]2O[C@@H](n3ccc(N)nc3=O)[C@H](O)[C@@H]2O)(C(=O)O)C[C@@H]1O. Nature of the data set: purified protein, by the assay type. Conditions: other: apparent, 37° C., Tris-HCl pH 7.5, other substrate fixed at 1 mM.
Experimental: Reactions were carried out in duplicate at 37° C. for 7 min in a total volume of 10 μl in a Tris-HCl buffer (200 mM, pH 7.5).
Data set [8] can be described thus: Storage stability of purified truncated PmST3 proteins. The format is physicochemical. How it is done:
To further improve the expression of the soluble and active protein, three C-terminal truncated versions of PmST3 (PmST3Δ20-His6, PmST3Δ35-His6, and PmST3Δ45-His6 with the removal of C-terminal 20, 35, and 45 amino acid residues) were cloned into pET22b(+) vector as C-His6 (SEQ ID NO:37) tagged fusion proteins. […] For PmST3Δ45-His6, the expression of soluble protein was improved to the level of MBP fusion protein (4 mg of purified protein from 1 liter of cell culture by Ni^2+-NTA affinity chromatography). However, PmST3Δ45-His6 seemed to have stability issues. […] Under the same expression conditions, purified PmST3Δ35-His6 can be routinely obtained at a level of 29 mg from cell lysate from one liter of cell culture.

Data set [9] in a line: pH profile of α2-3-sialyltransferase activity. The format is biochemical. How it is done: pH profile of PmST3Δ35-His6. Reactions were carried out in duplicate at 37° C. for 10 min. […] Buffers used were: MES-KOH (pH 4.0-6.5), Tris-HCl (pH 7.0-9.0), and CHES (pH 10.0). Enzymatic reaction was quenched by adding 490 μl of pre-chilled acetonitrile:water (20:80) mixture. The samples were kept on ice until being analyzed by a Shimadzu LC-2010A HPLC system equipped with a membrane on-line degasser, a temperature control unit, and a fluorescence detector (the excitation wavelength was set at 315 nm and the emission wavelength was set at 400 nm) using a reverse phase Premier C18 column (250×4.6 mm I.D., 5 μm particle size, Shimadzu) protected with a C18 guard column cartridge. Mobile phase used was 20% acetonitrile in water.

The nature of data set [10]: Comparison of three Pasteurella multocida sialyltransferases (activities and acceptor use). It is filed as biochemical.

Read-outs that look alike come from different tables or passages of the source.

Turning to `Cc1cc(=O)oc2cc(O[C@@H]3O[C@H](CO)[C@@H](O[C@@H]4O[C@H](CO)[C@H](O)[C@H](O)[C@H]4O)[C@H](O)[C@H]3O)ccc12` [LacβMU, 4-methylumbelliferyl β-lactoside], at PmST3Δ35-His6 [1], the “% Conv. (10 min)” value is on record as 29.9 ± 1.2% and the “% Conv. (4 h)” value turned out to be 65.6 ± 1.6%.
With `O=[N+]([O-])c1ccc(O[C@@H]2O[C@H](CO)[C@H](O)[C@H](O)[C@H]2O)cc1` [GalβpNP, p-nitrophenyl β-galactoside], on PmST3Δ35-His6 [1], the “% Conv. (10 min)” value is below 1% and the “% Conv. (4 h)” value is given as 9.4 ± 0.4%.
As to `CC(=O)N[C@H]1[C@H]([C@H](O)[C@H](O)CO)O[C@](OP(=O)(O)OC[C@H]2O[C@@H](n3ccc(N)nc3=O)[C@H](O)[C@@H]2O)(C(=O)O)C[C@@H]1O` [CMP-Neu5Ac, Cytidine 5′-monophosphate N-acetylneuraminic acid], the Km is 400 µM with CstI, 1300 ± 100 µM in the data set with PmST2 [2] and 440 µM at PmST1 [3].
For the molecule `[Cl-].[Cl-].[Mg+2]` [MgCl2], the “effect on enzyme activity” value in the data set with PmST2 [4] and at PmST3Δ35-His6 [5] (MnCl2 or MgCl2 up to 20 mM) was “did not affect” each time.
`[Cl][Mn][Cl]` [MnCl2]: the “effect on enzyme activity” value in the data set on PmST2 [4] and on PmST3Δ35-His6 [5] (MnCl2 or MgCl2 up to 20 mM) was “did not affect” each time. Besides, the entries for the “effect on α2-3-sialyltransferase activity” value on PmST1 [6] (5 mM or 10 mM) and on PmST1 [6] (20 mM) were “decreased” and “almost abolished”, respectively.
Take “PmST3Δ35-His6 (Pasteurella multocida subsp. multocida str. Pm70)”: in data set [7], the Km amounted to 260 ± 10 µM, the Vmax was determined as 44 µM/min, the kcat amounted to 0.122 ± 0.00167 s⁻¹ and the kcat/Km was found to be 467 M⁻¹ s⁻¹.
As for `O[C@H](CS)[C@H](O)CS` (racemic) [DTT, dithiothreitol], the “effect on enzyme activity” value on PmST3Δ35-His6 [5] (DTT 1 or 10 mM) is “Change of activity was not observed”.
Take `O=C(O)CN(CCN(CC(=O)O)CC(=O)O)CC(=O)O` [EDTA, Ethylenediaminetetraacetic acid]: on PmST3Δ35-His6 [5] (EDTA up to 10 mM), the “effect on enzyme activity” value was “did not affect”.

B1: PmST3Δ45-His6: C-terminal 45 residue truncated, C-His6 tagged PmST3, SEQ ID NO: 12 (protein)
chain: MDKFAEHEIPKAVIVAGNGESLSQIDYRLLPKNYDVFRCNQFYFEERYFLGNKIKAVFFTPGVFLEQYYTLYHLKRNNEYFVDNVILSSFNHPTVDLEKSQKIQALFIDVINGYEKYLSKLTAFDVYLRYKELYENQRITSGVYMCAVAIAMGYTDIYLTGIDFYQASEENYAFDNKKPNIIRLLPDFRKEKTLFSYHSKDIDLEALSFLQQHYHVNFYSISPMSPLSKHFPIPTVEDDCETTFVAPLKENYINDILLVDKLAAALEHHHHHH
modifications: synthetic C-terminal truncated Pasteurella multocida sialyltransferase 3 (PmST3, Pm1174) C-His-6 tagged fusion protein PmST3delta45-His-6
As for B1, the “storage stability (precipitation)” value in [8] (after 3 days of storage at 4° C. after dialysis against 10% glycerol and 25 mM Tris-HCl, pH 7.5) is given as “Precipitation was observed”.

B2: PmST3Δ35-His6: C-terminal 35 residue truncated, C-His6 tagged PmST3 α2-3-sialyltransferase, SEQ ID NO: 11 (protein)
chain: MDKFAEHEIPKAVIVAGNGESLSQIDYRLLPKNYDVFRCNQFYFEERYFLGNKIKAVFFTPGVFLEQYYTLYHLKRNNEYFVDNVILSSFNHPTVDLEKSQKIQALFIDVINGYEKYLSKLTAFDVYLRYKELYENQRITSGVYMCAVAIAMGYTDIYLTGIDFYQASEENYAFDNKKPNIIRLLPDFRKEKTLFSYHSKDIDLEALSFLQQHYHVNFYSISPMSPLSKHFPIPTVEDDCETTFVAPLKENYINDILLPPHFVYEKLGVDKLAAALEHHHHHH
modifications: synthetic C-terminal truncated Pasteurella multocida sialyltransferase 3 (PmST3, Pm1174) C-His-6 tagged fusion protein PmST3delta35-His-6
In the case of B2, in [9] (LacβPro2AA as acceptor), the “optimal pH range for α2-3-sialyltransferase activity” value is listed as 6.5-9.0. The “activity outside the optimal pH range” value in data set [9] (pH below 6.0 or 10.0) is on record as “decreased dramatically”. For the same molecule, in data set [10], the “Use galactosyl glycolipids as acceptors” value was “Yes”, the “Use galactosyl oligosaccharides as acceptors” value is reported as “Yes”, the α2-3-sialidase activity entry is “No” and the α2-3-sialyltransferase activity entry was “Yes”. Also, in data set [10], the α2-3-trans-sialidase activity entry is “No” and the α2-6-sialyltransferase activity entry is reported as “No”. The “storage stability (activity)” value in data set [8] (after 3 months of storage in 10% glycerol and 25 mM Tris-HCl (pH 7.5) buffer) is on record as “remained active”.
